EP0753300B1, “Use of antioxidative steroids for the manufacture of pharmaceutical preparations for substition therapy in man” (priority 1995, dated 1997)

Columns and labels:
[1] = Pentetrazol kindling, seizure stages in male mice; format: in vivo, Mäuse
Method: Aus Tabelle 2 ist ersichtlich, daß J 861 - 14,15α-Methylen-8-dehydro-17α-estradiol z.B. bereits in einer Dosierung von 1 mg/kg nach einmaliger oraler Gabe eine Stunde vor der krampfauslösenden Pentetrazol-Injektion an männlichen Mäusen das Krampfstadium 3 hemmt. In steigender Dosierung und bei längerer Substanzapplikation werden auch die anderen Krampfstadien beeinflußt.

VCAM-1 = experiment: Inhibition of TNFα-induced VCAM-1 expression in cultured endothelial cells (histological assessment); format: cell-based, humanen Ursprungs; conditions: cultured human endothelial cells
From the text: (§1) J. Clin. Endocrinol. Metab. 7:1619-1624 (1994) ausgeführt. Als Vergleich zu […] 17β-Estradiol, welches mit (x) gekennzeichnet wurde. Tabelle 1

[2] = Adjuvant arthritis in male rats, oral, 21 days; format: in vivo, Lewis-Ratten; conditions: for Sekundärarthritis Score: 8 per group, group sum, max. 72 (arthritic control); for % Hemmung Primärarthritis max. Wirkung: swelling of injected left hind paw
Method: Die Adjuvansarthritis bei Lewis-Ratten ist ein gut bekanntes und etabliertes Modell für die chronische Rheumatoid-Arthritis des Menschen [Newbould BB: Chemotherapy of arthritis induced in rats by mycobacterial adjuvant. Br. J. Pharmacol. 21:127-136 (1963); Hirschelmann R: Die 6-Sulfanilamidoindazol-Arthritis und die Adjuvansarthritis der Ratte als Modelle zur Testung von Antiphlogistika. Dissertation B (Habil.-Schrift), Halle, 1976]
Die Arthritis wurde durch Injektion von 0,1 ml Freund'sches Adjuvans in die linke Hinterpfote ausgelöst. Prüfparameter waren die Hemmung der Schwellung der linken Hinterpfote und der Grad der Sekundärarthritis durch Beurteilung der Schwellung der drei anderen Pfoten. Tabelle 3

ICAM-1 = experiment: Inhibition of TNFα-induced ICAM-1 expression in cultured endothelial cells (histological assessment); format: cell-based, humanen Ursprungs; parameters: key: +: wenig wirksam; ++: gut wirksam; +++: sehr gut wirksam; conditions: cultured human endothelial cells
From the text: as §1

Estrogen-Rezeptor = molecular target: T1, Estrogen-Rezeptor (Oryctolagus cuniculus, UniProt G1SML6); experiment: Estrogen receptor affinity, competitive binding with [3H]-Ethinylestradiol in uterus cytosol; parameters: species or system Kaninchen; conditions: quotient of IC50 of 17β-Estradiol and of test substance; rabbit uterus cytosol; tracer [3H]-Ethinylestradiol 3 nM; 0 to 4 °C, 18 h
T1 construct: Es wurden weibliche Kaninchen (weiße Neuseeländer) im Gewicht von 1,5 bis 2 kg in Barbituratnarkose getötet, die Uteri entnommen; from tissue; host or cells: rabbit uterus cytosol (100 000 g supernatant of the homogenate)
T1 sequence (G1SML6 1-598): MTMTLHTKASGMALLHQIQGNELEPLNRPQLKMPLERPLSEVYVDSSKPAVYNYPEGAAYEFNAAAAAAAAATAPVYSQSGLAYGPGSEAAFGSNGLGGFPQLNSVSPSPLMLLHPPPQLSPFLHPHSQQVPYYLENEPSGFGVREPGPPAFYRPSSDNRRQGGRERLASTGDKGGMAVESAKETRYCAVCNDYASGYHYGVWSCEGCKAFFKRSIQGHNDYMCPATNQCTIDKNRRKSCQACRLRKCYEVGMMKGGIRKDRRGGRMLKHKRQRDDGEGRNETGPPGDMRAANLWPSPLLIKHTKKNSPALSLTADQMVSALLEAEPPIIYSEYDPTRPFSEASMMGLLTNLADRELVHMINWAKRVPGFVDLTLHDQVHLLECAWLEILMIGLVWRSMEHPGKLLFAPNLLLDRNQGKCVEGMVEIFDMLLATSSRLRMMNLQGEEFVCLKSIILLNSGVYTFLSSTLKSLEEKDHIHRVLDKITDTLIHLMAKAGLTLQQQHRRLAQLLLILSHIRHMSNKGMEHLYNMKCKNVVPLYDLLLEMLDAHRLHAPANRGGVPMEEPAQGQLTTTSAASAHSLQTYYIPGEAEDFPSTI
Method: Die Affinität zum Estrogen Rezeptor wurde in Kaninchen-Uterus-Cytosol bestimmt durch competitive Bindung von ^3H-markiertem Tracer und der jeweils zu testenden Verbindungen in Konzentrationsreihen, die die IC50 einschlossen. […] Das nach Zentrifugieren bei 16 000 g und 100 000 g gewonnene Cytosol wurde portionsweise schockgefroren und bei -30 °C aufbewahrt. Das geeignet verdünnte Cytosol (Rezeptorkonzentration ca. 0,3 nM) wurde mit dem Tracer [^3H]-Ethinylestradiol (3nM) und den zu prüfenden Competitoren bei 0 bis 4 °C für 18 Stunden inkubiert. Der freie Tracer wurde durch Adsorption an Aktivkohle/Dextran (1 %/0,1 %) und Zentrifugation abgetrennt und die gebundene ^3H-Aktivität im Überstand gemessen.

[3] = Carrageenin paw oedema of the male rat; format: in vivo, Ratte; conditions: 24 hours after provocation of the oedema, inflammation no longer acute
[4] = format: in vivo, Mann
From the text: Die aufgezeigten Systeme […] Studie an ä[…]. […] Alter von 52 bis 63 Jahren über 6 Monate […] Probanden nahm eine weitere Medikation ein. Bei 6 der 12 Probanden ergab […]-, Leber- und […] vor Beginn der Studie bei allen Probanden unauffällig. Auch die Plasma-[…] Testosteron > 12 nmol/[…] Testosteron > 0,2 nmol/[…] 6 Probanden […] OGTT erhöhte Gesamtcholesterol- und […] die In-vivo-Bestimmung der LDL-Cholesterol-Oxidation und die Hormonanalysen wurden zu Studienbeginn, danach wöchentlich und einen Tag […] und morgendlichem Fasten jeweils zwischen 8 und 10 Uhr morgens).

[5] = 1,0 mg/kg, single oral dose one hour before pentetrazol

For C[C@]12CCC3=C(CCc4cc(O)ccc43)[C@@]13C[C@H]3C[C@H]2O [J 861, 14,15α-Methylen-8-dehydro-17α-estradiol], the “Krampfstadien 1/2 Kl (Krampfindex gesenkt)” value ([1]; 10 mg/kg) was “-”, the “Krampfstadien 1/2 LZ[s] (Latenzzeit bis zur Ausprägung der Krämpfe erhöht)” value (from here on “Krampfstadien 1/2 LZ[s]”) ([1]; 10 mg/kg) was “-” and the “Krampfstadien 3 Kl (Krampfindex gesenkt)” value ([1]; 10 mg/kg) was “++”. For the same compound, the “Krampfstadien 3 LZ[s] (Latenzzeit bis zur Ausprägung der Krämpfe erhöht)” value (from here on “Krampfstadien 3 LZ[s]”) ([1]; 10 mg/kg) was “-”, the “Krampfstadien 4/5/6 Kl (Krampfindex gesenkt)” value ([1]; 10 mg/kg) was “+” and the “Krampfstadien 4/5/6 LZ[s] (Latenzzeit bis zur Ausprägung der Krämpfe erhöht)” value (“Krampfstadien 4/5/6 LZ[s]” below) ([1]; 10 mg/kg) was “++”. The “Krampfstadien 1/2 Kl (Krampfindex gesenkt)” value ([1]; 100 mg/kg) was “-”, the “Krampfstadien 1/2 LZ[s]” value ([1]; 100 mg/kg) was “-” and the “Krampfstadien 3 Kl (Krampfindex gesenkt)” value ([1]; 100 mg/kg) was “++”. The “Krampfstadien 3 LZ[s]” value ([1]; 100 mg/kg) was “-”, the “Krampfstadien 4/5/6 Kl (Krampfindex gesenkt)” value ([1]; 100 mg/kg) was “+” and the “Krampfstadien 4/5/6 LZ[s]” value ([1]; 100 mg/kg) was “++”. For the same compound, the “Krampfstadien 1/2 Kl (Krampfindex gesenkt)” value [1, 5] was “-”, the “Krampfstadien 1/2 LZ[s]” value [1, 5] was “-” and the “Krampfstadien 3 Kl (Krampfindex gesenkt)” value [1, 5] was “+++”. For the same compound, the “Krampfstadien 3 LZ[s]” value [1, 5] was “-”, the “Krampfstadien 4/5/6 Kl (Krampfindex gesenkt)” value [1, 5] was “+” and the “Krampfstadien 4/5/6 LZ[s]” value [1, 5] was “+”. The “Hemmung der Expression von VCAM-1” value (VCAM-1) was “+ + +”, the “Sekundärarthritis Score” value ([2]; 1 mg/kg oral) was 72 and the “% Hemmung Primärarthritis max. Wirkung” value ([2]; 1 mg/kg oral) was 16%. The “Sekundärarthritis Score” value ([2]; 10 mg/kg oral) was 46, the “% Hemmung Primärarthritis max. Wirkung” value ([2]; 10 mg/kg oral) was 38% and the “Sekundärarthritis Score” value ([2]; 25 mg/kg oral) was 38. The “% Hemmung Primärarthritis max. Wirkung” value ([2]; 25 mg/kg oral) was 61%, the “Sekundärarthritis Score” value ([2]; 50 mg/kg oral) was 35 and the “% Hemmung Primärarthritis max. Wirkung” value ([2]; 50 mg/kg oral) was 47%. For the same compound, the “Hemmung der Expression von ICAM-1” value (ICAM-1) was “+ + +” and the “relative Bindungsaffinität zum Estrogen-Rezeptor (RBA)” value (Estrogen-Rezeptor) was 32%.

In the case of NC(=O)N1c2ccccc2C=Cc2ccccc21 [Carbamazepin, reference compound], the “Krampfstadien 1/2 Kl (Krampfindex gesenkt)” value ([1]; 24 mg/kg) is reported as “-”, the “Krampfstadien 1/2 LZ[s]” value ([1]; 24 mg/kg) is reported as “+” and the “Krampfstadien 3 Kl (Krampfindex gesenkt)” value ([1]; 24 mg/kg) is reported as “-”. The “Krampfstadien 3 LZ[s]” value ([1]; 24 mg/kg) was “+”, the “Krampfstadien 4/5/6 Kl (Krampfindex gesenkt)” value ([1]; 24 mg/kg) was “+” and the “Krampfstadien 4/5/6 LZ[s]” value ([1]; 24 mg/kg) was “++”.

For C[C@]12CCC3=C(CCc4cc(O)ccc43)[C@@H]1CC[C@H]2O [J 811, 8-Dehydro-17α-estradiol], the “relative Bindungsaffinität zum Estrogen-Rezeptor (RBA)” value (Estrogen-Rezeptor) was 21%.

With O=C(O)Cc1ccccc1Nc1c(Cl)cccc1Cl [Diclofenac-Natrium] the Hemmeffekte [3] was “nur noch geringe Hemmeffekte”.

With C[C@]12CC[C@@H]3c4ccc(O)cc4CC[C@H]3[C@@H]1CC[C@H]2O [17α-Estradiol] the “Hemmung der Expression von VCAM-1” value (VCAM-1) was “+ +”, the “Einfluß auf die gewählten Hormonparameter” value ([4]; 2 mg daily, 6 months, older men, includes missing SHBG rise) was “nicht signifikant beeinflußt” and the “Schlafqualität und Libido” value ([4]; 2 mg daily, 6 months, reported by subjects) was “Verbesserung”. The “Freies Testosteron” value ([4]; Versuchsende, after 6 months 2 mg daily, 12 overweight men 52-63 years, Versuchsbeginn 0.32 ± 0.14) was 0.33 ± 0.15 nmol/L, the DHEA ([4]; Versuchsende, after 6 months 2 mg daily, 12 overweight men 52-63 years, Versuchsbeginn 14.3 ± 10.6) was 13.46 ± 8.13 nmol/L and the Gesamt-Testosteron ([4]; Versuchsende, after 6 months 2 mg daily, 12 overweight men 52-63 years, Versuchsbeginn 16.5 ± 4.6) was 15.6 ± 5.1 nmol/L. It also gave an Insulin ([4]; Versuchsende, after 6 months 2 mg daily, 12 overweight men 52-63 years, Versuchsbeginn 17 ± 10) of 15 ± 9 mlE/L, an SHBG ([4]; Versuchsende, after 6 months 2 mg daily, 12 overweight men 52-63 years, Versuchsbeginn 38 ± 17) of 39 ± 18 nmol/L and a DHEAS ([4]; Versuchsende, after 6 months 2 mg daily, 12 overweight men 52-63 years, Versuchsbeginn 5412 ± 3711) of 5660 ± 3292 nmol/L. For the same compound, the “Lp(a)” value ([4]; Versuchsende, after 6 months 2 mg daily, Versuchsbeginn 6.0 ± 1.0) was 5.7 ± 0.7 mg/dL, the LDL-Cholesterol ([4]; Versuchsende, after 6 months 2 mg daily, Versuchsbeginn 154 ± 10.5) was 135 ± 5.2 mg/dL and the Gesamt-Cholesterol ([4]; Versuchsende, after 6 months 2 mg daily, Versuchsbeginn 225 ± 11.1, p<0.05) was 195 ± 5.7 mg/dL. The Triglyceride ([4]; Versuchsende, after 6 months 2 mg daily, Versuchsbeginn 226 ± 31.1, p<0.05) was 132 ± 1.5 mg/dL, the LDL-Cholesterol-Oxidation ([4]; older men under 17α-Estradiol, blood samples, figures not given) was “deutliche Verzögerung” and the “Sekundärarthritis Score” value ([2]; 1 mg/kg oral) was 43. For the same compound, the “% Hemmung Primärarthritis max. Wirkung” value ([2]; 1 mg/kg oral) was 36%, the “Sekundärarthritis Score” value ([2]; 10 mg/kg oral) was 35 and the “% Hemmung Primärarthritis max. Wirkung” value ([2]; 10 mg/kg oral) was 39%. For the same compound, the “Hemmung der Expression von ICAM-1” value (ICAM-1) was “+ +”.

For C[C@]12CC[C@@H]3c4ccc(O)cc4CC[C@H]3[C@@H]1CC[C@@H]2O [17β-Estradiol, reference compound], the “Hemmung der Expression von VCAM-1” value (VCAM-1) was “+ +”, the “Sekundärarthritis Score” value ([2]; 1 mg/kg oral) was 47 and the “% Hemmung Primärarthritis max. Wirkung” value ([2]; 1 mg/kg oral) was 21%. For the same compound, the “Sekundärarthritis Score” value ([2]; 10 mg/kg oral) was 36, the “% Hemmung Primärarthritis max. Wirkung” value ([2]; 10 mg/kg oral) was 35% and the “Hemmung der Expression von ICAM-1” value (ICAM-1) was “+”.
